Results as given in article PMC5577601, “The Neuroprotective Marine Compound Psammaplysene A Binds the RNA-Binding Protein HNRNPK” (Marine Drugs, 2017).

Biological target: T1, HNRNPK (Homo sapiens, UniProt P61978)
T1 construct: GST-HNRNPK
Assay: surface plasmon resonance (Biacore […]), RNA-saturated GST-HNRNPK vs GST; a second estimate vs GST-HNRNPI gave Kd […]
Assay type: binding

CN(C)CCCOc1c(Br)cc(/C=C/C(=O)NCCCOc2c(Br)cc(CCN(C)C)cc2Br)cc1Br [PA, Psammaplysene A]
Kd: 77.3 µM
